Measured values as given in ChEMBL document CHEMBL3045164, “Combination of flavopiridol and embelin effectively inhibit cell growth in hepatocellular carcinoma depending on regulatory relationship between CDK6 and XIAP” (Med Chem Res, 2012).
One block for each compound: values may come before it. Activity calls are given as the source filed them. The calls are words filed in the database; no cut-off is given here.

Key:
[1] = Cell cycle arrest in Homo sapiens (human) HepG2(2.2.1) cells assessed as accumulation at G2 phase at 300 nM after 24 hr by propidium iodide staining-based flow cytometric analysis (reference value: 24.38 +/- 2.02 %); format: functional
Homo sapiens [2] = species: Homo sapiens; experiment: (§1) Cytotoxicity against Homo sapiens (human) HepG2(2.2.1) cells assessed as growth inhibition after 24 to 72 hr by WST-8 assay; format: functional, cell-based
[3] = as §1; format: functional, cell-based
Homo sapiens [4] = species: Homo sapiens; experiment: Cytotoxicity against Homo sapiens (human) HepG2(2.2.1) cells assessed as growth inhibition at 50 nM after 24 to 72 hr by WST-8 assay; format: functional, cell-based
[5] = Downregulation of XIAP expression in Homo sapiens (human) HepG2(2.2.1) cells at 500 nM after 24 hr by Western blot analysis; format: functional
[6] = Downregulation of XIAP expression in Homo sapiens (human) HepG2(2.2.1) cells after 24 hr by Western blot analysis; format: functional
[7] = target: G1/S-specific cyclin-D1 (Homo sapiens) (UniProt P24385); experiment: Inhibition of cyclin D1 in Homo sapiens (human) HepG2(2.2.1) cells assessed as downregulation of XIAP expression at 500 nM after 24 hr by Western blot analysis
Sequence of G1/S-specific cyclin-D1 (Homo sapiens) (P24385 whole entry): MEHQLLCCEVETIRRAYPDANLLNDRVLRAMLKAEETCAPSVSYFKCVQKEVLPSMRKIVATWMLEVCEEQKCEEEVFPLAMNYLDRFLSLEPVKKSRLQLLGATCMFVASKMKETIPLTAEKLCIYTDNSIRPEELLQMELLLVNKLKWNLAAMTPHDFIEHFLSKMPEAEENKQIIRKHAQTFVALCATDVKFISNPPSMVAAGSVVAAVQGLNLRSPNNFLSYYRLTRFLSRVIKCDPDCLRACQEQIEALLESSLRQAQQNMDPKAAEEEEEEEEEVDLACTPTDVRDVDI

Homo sapiens [8] = species: Homo sapiens; experiment: Cytotoxicity against Homo sapiens (human) HepG2(2.2.1) cells assessed as growth inhibition at 50 nM after 24 to 72 hr by WST-8 assay in presence of 10 uM XIAP inhibitor embelin; format: functional, cell-based
Homo sapiens [9] = species: Homo sapiens; experiment: Cytotoxicity against Homo sapiens (human) HepG2(2.2.1) cells assessed as growth inhibition at 100 nM after 24 to 72 hr by WST-8 assay; format: functional, cell-based
[10] = Downregulation of CDK2 expression in Homo sapiens (human) HepG2(2.2.1) cells at 500 nM after 24 hr by Western blot analysis; format: functional
Homo sapiens [11] = species: Homo sapiens; experiment: Cytotoxicity against Homo sapiens (human) HepG2(2.2.1) cells assessed as growth inhibition at 75 nM after 24 to 72 hr by WST-8 assay in presence of 15 uM XIAP inhibitor embelin; format: functional, cell-based
[12] = Downregulation of CDK1 expression in Homo sapiens (human) HepG2(2.2.1) cells at 500 nM after 24 hr by Western blot analysis; format: functional
Homo sapiens [13] = species: Homo sapiens; experiment: Cytotoxicity against Homo sapiens (human) HepG2(2.2.1) cells assessed as growth inhibition at 100 nM after 24 to 72 hr by WST-8 assay in presence of 75 uM XIAP inhibitor embelin; format: functional, cell-based
[14] = Cell cycle arrest in Homo sapiens (human) HepG2(2.2.1) cells assessed as accumulation at S phase at 100 nM after 24 hr by propidium iodide staining-based flow cytometric analysis (reference value: 22.55 +/- 2.98 %); format: functional
[15] = target: Cyclin-dependent kinase 6 (Homo sapiens) (UniProt Q00534); experiment: Inhibition of CDK6 in Homo sapiens (human) HepG2(2.2.1) cells assessed as downregulation of XIAP expression at 500 nM after 24 hr by Western blot analysis
Sequence of Cyclin-dependent kinase 6 (Homo sapiens) (Q00534 whole entry): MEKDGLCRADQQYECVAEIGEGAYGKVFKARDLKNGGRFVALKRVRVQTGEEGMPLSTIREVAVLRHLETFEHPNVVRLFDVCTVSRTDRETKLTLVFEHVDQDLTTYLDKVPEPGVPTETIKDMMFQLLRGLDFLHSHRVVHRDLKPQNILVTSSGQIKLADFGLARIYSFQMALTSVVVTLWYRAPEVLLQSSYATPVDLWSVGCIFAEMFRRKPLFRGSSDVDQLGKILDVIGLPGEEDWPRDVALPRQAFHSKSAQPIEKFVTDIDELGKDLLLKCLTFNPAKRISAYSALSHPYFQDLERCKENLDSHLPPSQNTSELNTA

[16] = Downregulation of cyclin D1 expression in Homo sapiens (human) HepG2(2.2.1) cells at 500 nM after 24 hr by Western blot analysis; format: functional
[17] = Cell cycle arrest in Homo sapiens (human) HepG2(2.2.1) cells assessed as accumulation at G2 phase at 500 nM after 24 hr by propidium iodide staining-based flow cytometric analysis (reference value: 24.38 +/- 2.02 %); format: functional
[18] = Cell cycle arrest in Homo sapiens (human) HepG2(2.2.1) cells assessed as accumulation at S phase at 500 nM after 24 hr by propidium iodide staining-based flow cytometric analysis (reference value: 22.55 +/- 2.98 %); format: functional
[19] = Downregulation of CDK6 expression in Homo sapiens (human) HepG2(2.2.1) cells at 500 nM after 24 hr by Western blot analysis; format: functional
[20] = Induction of apoptosis in Homo sapiens (human) HepG2(2.2.1) cells at 500 nM after 24 hr by annexin V-FITC/propidium iodide staining-based flow cytometric analysis (reference value: 2.20%); format: functional
[21] = Cell cycle arrest in Homo sapiens (human) HepG2(2.2.1) cells assessed as accumulation at G2 phase at 100 nM after 24 hr by propidium iodide staining-based flow cytometric analysis (reference value: 24.38 +/- 2.02 %); format: functional
[22] = Cell cycle arrest in Homo sapiens (human) HepG2(2.2.1) cells assessed as accumulation at G1 phase at 100 nM after 24 hr by propidium iodide staining-based flow cytometric analysis (reference value: 53.07 +/- 3.01 %); format: functional
[23] = Cell cycle arrest in Homo sapiens (human) HepG2(2.2.1) cells assessed as accumulation at G1 phase at 300 nM after 24 hr by propidium iodide staining-based flow cytometric analysis (reference value: 53.07 +/- 3.01 %); format: functional
[24] = Downregulation of CDK4 expression in Homo sapiens (human) HepG2(2.2.1) cells at 500 nM after 24 hr by Western blot analysis; format: functional
[25] = Cell cycle arrest in Homo sapiens (human) HepG2(2.2.1) cells assessed as accumulation at G1 phase at 500 nM after 24 hr by propidium iodide staining-based flow cytometric analysis (reference value: 53.07 +/- 3.01 %); format: functional
[26] = Cell cycle arrest in Homo sapiens (human) HepG2(2.2.1) cells assessed as accumulation at S phase at 300 nM after 24 hr by propidium iodide staining-based flow cytometric analysis (reference value: 22.55 +/- 2.98 %); format: functional
Homo sapiens [27] = species: Homo sapiens; experiment: Cytotoxicity against Homo sapiens (human) HepG2(2.2.1) cells assessed as growth inhibition at 75 nM after 24 to 72 hr by WST-8 assay; format: functional, cell-based
[28] = target: Cyclin-dependent kinase 4 (Homo sapiens) (UniProt P11802); experiment: Inhibition of CDK4 in Homo sapiens (human) HepG2(2.2.1) cells assessed as downregulation of XIAP expression at 500 nM after 24 hr by Western blot analysis
Sequence of Cyclin-dependent kinase 4 (Homo sapiens) (P11802 whole entry): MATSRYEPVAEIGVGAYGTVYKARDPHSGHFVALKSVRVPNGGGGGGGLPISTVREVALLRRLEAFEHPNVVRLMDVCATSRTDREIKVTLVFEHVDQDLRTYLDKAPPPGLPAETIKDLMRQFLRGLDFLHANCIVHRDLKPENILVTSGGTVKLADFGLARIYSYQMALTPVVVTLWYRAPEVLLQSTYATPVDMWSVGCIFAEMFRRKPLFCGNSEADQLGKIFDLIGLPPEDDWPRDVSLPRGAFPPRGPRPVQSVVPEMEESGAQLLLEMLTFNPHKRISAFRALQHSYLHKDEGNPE

Homo sapiens [29] = species: Homo sapiens; experiment: Cytotoxicity against Homo sapiens (human) HepG2(2.2.1) cells assessed as growth inhibition at 15 uM after 24 to 72 hr by WST-8 assay; format: functional, cell-based
Homo sapiens [30] = species: Homo sapiens; experiment: Cytotoxicity against Homo sapiens (human) HepG2(2.2.1) cells assessed as growth inhibition at 20 uM after 24 to 72 hr by WST-8 assay; format: functional, cell-based
Homo sapiens [31] = species: Homo sapiens; experiment: Cytotoxicity against Homo sapiens (human) HepG2(2.2.1) cells assessed as growth inhibition at 10 uM after 24 to 72 hr by WST-8 assay; format: functional, cell-based

inhibition [7]: Active | inhibition [15]: Active | inhibition [28]: Active
Compound: CN1CC[C@H](c2c(O)cc(O)c3c(=O)cc(-c4ccccc4Cl)oc23)[C@H](O)C1 [ALVOCIDIB]
Activity [1]: 15.7% | growth inhibition (GI) (Homo sapiens [2]): Dose-dependent effect | IC50 [3]: 200 nM | growth inhibition (GI) (Homo sapiens [4]): Active | Activity [5]: Active | Activity [6]: Dose-dependent effect | growth inhibition (GI) (Homo sapiens [8]): Active | growth inhibition (GI) (Homo sapiens [9]): Active | Activity [10]: inactive | growth inhibition (GI) (Homo sapiens [11]): Active | Activity [12]: inactive | growth inhibition (GI) (Homo sapiens [13]): Active | Activity [14]: 22.2% | Activity [16]: Active | Activity [17]: 20.9% | Activity [18]: 21.2% | Activity [19]: Active | Activity [20]: 14.28% | Activity [21]: 23.2% | Activity [22]: 54.6% | Activity [23]: 56.4% | Activity [24]: Active | Activity [25]: 57.9% | Activity [26]: 27.9% | growth inhibition (GI) (Homo sapiens [27]): Active

Compound: CCCCCCCCCCCC1=C(O)C(=O)C=C(O)C1=O
growth inhibition (GI) (Homo sapiens [29]): Active | growth inhibition (GI) (Homo sapiens [30]): Active | growth inhibition (GI) (Homo sapiens [31]): Active
